Consider 14 compounds from patent US20080188502A1, “New Compounds I” (AstraZeneca AB, priority 2006, published 2008).

Structures can show the parent of a compound that is named as a salt.

T1 sequence (P49841 whole entry): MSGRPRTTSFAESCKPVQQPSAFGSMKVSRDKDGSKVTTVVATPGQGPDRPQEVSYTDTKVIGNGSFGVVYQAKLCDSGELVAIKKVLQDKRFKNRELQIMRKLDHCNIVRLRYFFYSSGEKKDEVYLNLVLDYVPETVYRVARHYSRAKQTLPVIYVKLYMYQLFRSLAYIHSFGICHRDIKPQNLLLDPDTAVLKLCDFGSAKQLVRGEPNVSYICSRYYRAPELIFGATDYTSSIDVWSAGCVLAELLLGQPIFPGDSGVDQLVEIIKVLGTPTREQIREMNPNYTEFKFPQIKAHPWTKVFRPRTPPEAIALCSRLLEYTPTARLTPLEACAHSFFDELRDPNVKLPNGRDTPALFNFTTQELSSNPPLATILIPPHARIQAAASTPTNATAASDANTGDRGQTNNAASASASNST

The assay concerns the target T1, recombinant human GSK3β (Homo sapiens, UniProt P49841).
T1 construct: purchased Dundee University, UK
The experiment in a line: GSK3β Scintillation Proximity Assay (ATP competition). The following applies: inhibition constants calculated with Km of ATP for GSK3β of 20 μM; 1 μM ATP, 1 μM biotinylated peptide substrate. It is filed as biochemical. The procedure: Determination of ATP Competition in Scintillation Proximity GSK3β Assay.
GSK3β Scintillation Proximity Assay.
The competition experiments were carried out in duplicate with 10 different concentrations of the inhibitors in clear-bottom microtiter plates (Wallac, Finland). A biotinylated peptide substrate, Biotin-Ala-Ala-Glu-Glu-Leu-Asp-Ser-Arg-Ala-Gly-Ser(PO3H2)-Pro-Gln-Leu (AstraZeneca, Lund), was added at a final concentration of 1 μM in an assay buffer containing 1 mU recombinant human GSK3β (Dundee University, UK), 12 mM morpholinepropanesulfonic acid (MOPS), pH 7.0, 0.3 mM EDTA, 0.01% β-mercaptoethanol, 0.004% Brij 35 (a […] detergent), 0.5% glycerol and 0.5 μg BSA/25 μl. The reaction was initiated by the addition of 0.04 μCi [γ-^33P]ATP (Amersham, UK) and unlabelled ATP at a final concentration of 1 μM and assay volume of 25 μl. After incubation for 20 minutes at room temperature, each reaction was terminated by the addition of 25 μl stop solution containing 5 mM EDTA, 50 μM ATP, 0.1% Triton X-100 and 0.25 mg streptavidin coated Scintillation Proximity Assay (SPA) beads (Amersham, UK). After 6 hours the radioactivity was determined in a liquid scintillation counter (1450 MicroBeta Trilux, Wallac). The inhibition curves were analysed by non-linear regression using GraphPad Prism, USA. The Km value of ATP for GSK3β, used to calculate the inhibition constants (Ki) of the various compounds, was 20 μM.
For the compound `Cn1c(-c2nc(Nc3cnc(C(=O)N4CCC4)c(Cl)c3)ncc2F)cnc1C(F)(F)F` [Example 45, Azetidin-1-yl-[3-chloro-5-[[5-fluoro-4-[3-methyl-2-(trifluoromethyl)imidazol-4-yl]pyrimidin-2-yl]amino]pyridin-2-yl]methanone hydrochloride], the Ki (in general, a dissociation constant, usually derived from enzyme kinetics or from competition with a known ligand) was 32 nM.
For `Cc1ncc(-c2nc(Nc3ccc(C(=O)N4CCC4)nc3)ncc2F)n1C` [Example 46, N-[6-(Azetidin-1-ylcarbonyl)pyridin-3-yl]-4-(1,2-dimethyl-1H-imidazol-5-yl)-5-fluoropyrimidin-2-amine], the Ki was 39 nM.
In the case of `Cc1ncc(-c2nc(Nc3ccc(C(=O)N4CCN(C)CC4)nc3)ncc2F)n1C` [Example 47, 4-(1,2-Dimethyl-1H-imidazol-5-yl)-5-fluoro-N-{6-[(4-methylpiperazin-1-yl)carbonyl]pyridin-3-yl}pyrimidin-2-amine], the Ki was 100 nM.
On to `Cc1ncc(-c2nc(Nc3cnc(C(=O)N4CCC4)c(Cl)c3)ncc2F)n1C` [Example 48, N-[6-(Azetidin-1-ylcarbonyl)-5-chloropyridin-3-yl]-4-(1,2-dimethyl-1H-imidazol-5-yl)-5-fluoropyrimidin-2-amine], for which the Ki was 16 nM.
On to `Cc1ncc(-c2nc(Nc3cnc(C(=O)N4CCN(C)CC4)c(Cl)c3)ncc2F)n1C` [Example 49, N-[5-Chloro-6-[(4-methylpiperazin-1-yl)carbonyl]pyridin-3-yl]-4-(1,2-dimethyl-1H-imidazol-5-yl)-5-fluoropyrimidin-2-amine], for which the Ki was 19 nM.
For the compound `Cc1ncc(-c2nc(Nc3ccc(S(=O)(=O)C(C)C)nc3)ncc2F)n1C1CCOCC1` [Example 50, {5-Fluoro-4-[2-methyl-3-(tetrahydro-pyran-4-yl)-3H-imidazol-4-yl]-pyrimidin-2-yl}-[6-(propan-2-ylsulfonyl)-pyridin-3-yl]-amine], the Ki is 33 nM.
To `CCS(=O)(=O)c1ccc(Nc2ncc(F)c(-c3cnc(C)n3C3CCOCC3)n2)cn1` [Example 51, (6-Ethanesulfonyl-pyridin-3-yl)-{5-fluoro-4-[2-methyl-3-(tetrahydro-pyran-4-yl)-3H-imidazol-4-yl]-pyrimidin-2-yl}-amine] belongs 21 nM.
In the case of `Cc1ncc(-c2nc(Nc3ccc(S(=O)(=O)NCC(F)(F)F)nc3)ncc2F)n1C1CCOCC1` [Example 52], the Ki is 39 nM.
As to `Cc1ncc(-c2nc(Nc3ccc(S(=O)(=O)N(C)C)nc3)ncc2F)n1C1CCOCC1` [Example 53], the Ki is 20 nM.
On to `Cc1ncc(-c2nc(Nc3cnc(C(=O)N4CCCCC4)c(Cl)c3)ncc2F)n1C1CCOCC1` [Example 54, N-[5-Chloro-6-(piperidin-1-ylcarbonyl)pyridin-3-yl]-5-fluoro-4-[2-methyl-1-(tetrahydro-2H-pyran-4-yl)-1H-imidazol-5-yl]pyrimidin-2-amine hydrocholoride, hydrochloride], for which the Ki was 7 nM.
Regarding `Cc1ncc(-c2nc(Nc3cnc(C(=O)N4CCCCC4)c(Cl)c3)ncc2F)n1C` [Example 55, N-[5-Chloro-6-(piperidin-1-ylcarbonyl)pyridin-3-yl]-4-(1,2-dimethyl-1H-imidazol-5-yl)-5-fluoropyrimidin-2-amine hydrochloride], the Ki was 18 nM.
Consider `Cn1c(-c2nc(Nc3cnc(C(=O)N4CCCCC4)c(Cl)c3)ncc2F)cnc1C(F)(F)F` [Example 56, N-[5-Chloro-6-(piperidin-1-ylcarbonyl)pyridin-3-yl]-5-fluoro-4-[1-methyl-2-(trifluoromethyl)-1H-imidazol-5-yl]pyrimidin-2-amine hydrochloride], for which the Ki is 55 nM.
Take `O=C(c1ncc(Nc2ncc(F)c(-c3cnc(C(F)(F)F)n3C3CCOCC3)n2)cc1Cl)N1CCCCC1` [Example 57, N-[5-Chloro-6-(piperidin-1-ylcarbonyl)pyridin-3-yl]-5-fluoro-4-[1-(tetrahydro-2H-pyran-4-yl)-2-(trifluoromethyl)-1H-imidazol-5-yl]pyrimidin-2-amine hydrochloride]: the Ki was 19 nM.
Regarding `Cc1ncc(-c2nc(Nc3ccc(S(=O)(=O)N4CCN(C)CC4)nc3)ncc2F)n1C1CCOCC1` [Example 58, {5-Fluoro-4-[2-methyl-3-(tetrahydro-pyran-4-yl)-3H-imidazol-4-yl]-pyrimidin-2-yl}-[6-(4-methyl-piperazine-1-sulfonyl)-pyridin-3-yl]-amine], the Ki was 30 nM.
